Measured values from ChEMBL document CHEMBL1152853, “Synthesis and biological evaluation of novel symmetry bis-enediynes” (2009).
The source made the active and inactive calls. The rule behind the calls is not given here.

What was measured:
T47D = assay: Cytotoxicity against human T47D cells; type: functional
NCI/ADR-RES = assay: Cytotoxicity against human NCI/ADR-RES cells; type: functional
MDA-MB-231 = assay: Cytotoxicity against human MDA-MB-231 cells; type: functional
SNB-19 = assay: Cytotoxicity against human SNB19 cells; type: functional
M14 = assay: Cytotoxicity against human M14 cells; type: functional
OVCAR-5 = assay: Cytotoxicity against human OVCAR5 cells; type: functional
RXF 393 = assay: Cytotoxicity against human […] cells; type: functional
HCT-116 = assay: Cytotoxicity against human HCT116 cells; type: functional
K562 [1] = assay: Cell cycle arrest in human K562 cells assessed as accumulation in G0/G1 phase at 50 uM after 24 hrs by flow cytometry analysis; type: functional
A549 = assay: Cytotoxicity against human A549 cells; type: functional
HCT-15 = assay: Cytotoxicity against human HCT15 cells; type: functional
ACHN = assay: Cytotoxicity against human ACHN cells; type: functional
K562 [2] = assay: Cell cycle arrest in human K562 cells assessed as accumulation in S phase at 50 uM after 24 hrs by flow cytometry analysis; type: functional
U-251 = assay: Cytotoxicity against human U251 cells; type: functional
SK-MEL-28 = assay: Cytotoxicity against human SK-MEL-28 cells; type: functional
PC-3 = assay: Cytotoxicity against human PC3 cells; type: functional
NCI-H460 = assay: Cytotoxicity against human NCI-H460 cells; type: functional
OVCAR-4 = assay: Cytotoxicity against human OVCAR4 cells; type: functional
K562 [3] = assay: Cell cycle arrest in human K562 cells assessed as accumulation in S phase at 10 uM after 24 hrs by flow cytometry analysis; type: functional
K562 [4] = assay: Cell cycle arrest in human K562 cells assessed as accumulation in S phase at 20 uM after 24 hrs by flow cytometry analysis; type: functional
SF-295 = assay: Cytotoxicity against human SF295 cells; type: functional
HOP-62 = assay: Cytotoxicity against human HOP62 cells; type: functional
MOLT-4 = assay: Cytotoxicity against human MOLT4 cells; type: functional
HT-29 = assay: Cytotoxicity against human HT-29 cells; type: functional
K562 [5] = assay: Cell cycle arrest in human K562 cells assessed as accumulation in G0/G1 phase at 10 uM after 24 hrs by flow cytometry analysis; type: functional
K562 [6] = assay: Cell cycle arrest in human K562 cells assessed as accumulation in Sub-G1 phase at 50 uM after 24 hrs by flow cytometry analysis; type: functional
K562 [7] = assay: Cell cycle arrest in human K562 cells assessed as accumulation in G0/G1 phase at 20 uM after 24 hrs by flow cytometry analysis; type: functional
COLO 205 = assay: Cytotoxicity against human COLO205 cells; type: functional
K562 [8] = assay: Inhibition of G2/M phase related Cyclin B protein expression in human K562 cells at 20 uM by Western blotting analysis; type: functional, cell-based
NCI-H226 = assay: Cytotoxicity against human NCI-H226 cells; type: functional
UO-31 = assay: Cytotoxicity against human UO31 cells; type: functional
OVCAR-3 = assay: Cytotoxicity against human OVCAR-3 cells; type: functional
MCF7 = assay: Cytotoxicity against human MCF7 cells; type: functional
[9] = Cytotoxicity against human […] cells; type: functional
HCC 2998 = assay: Cytotoxicity against human HCC2998 cells; type: functional
SK-MEL-5 = assay: Cytotoxicity against human SK-MEL-5 cells; type: functional
K562 [10] = assay: Cytotoxicity against human K562 cells; type: functional
SN12C = assay: Cytotoxicity against human SN12C cells; type: functional
K562 [11] = assay: Cell cycle arrest in human K562 cells assessed as accumulation in Sub-G1 phase at 20 uM after 24 hrs by flow cytometry analysis; type: functional
SW-620 = assay: Cytotoxicity against human SW620 cells; type: functional
K562 [12] = assay: Inhibition of G2/M phase related Cyclin A protein expression in human K562 cells at 20 uM by Western blotting analysis; type: functional, cell-based
CCRF-CEM = assay: Cytotoxicity against human CCRF-CEM cells; type: functional
786-0 = assay: Cytotoxicity against human 786-0 cells; type: functional
SNB-75 = assay: Cytotoxicity against human SNB75 cells; type: functional
DU-145 = assay: Cytotoxicity against human DU145 cells; type: functional
LOX IMVI = assay: Cytotoxicity against human LOXIMVI cells; type: functional
EKVX = assay: Cytotoxicity against human EKVX cells; type: functional
K562 [13] = assay: Cell cycle arrest in human K562 cells assessed as accumulation in Sub-G1 phase at 10 uM after 24 hrs by flow cytometry analysis; type: functional
NCI-H522 = assay: Cytotoxicity against human NCI-H522 cells; type: functional
SF-268 = assay: Cytotoxicity against human SF268 cells; type: functional
SF-539 = assay: Cytotoxicity against human SF539 cells; type: functional
NCI-H23 = assay: Cytotoxicity against human NCI-H23 cells; type: functional
[14] = Cytotoxicity against human Hs 578T cells; type: functional
HL-60 = assay: Cytotoxicity against human HL60 cells; type: functional
UACC-257 = assay: Cytotoxicity against human UACC257 cells; type: functional
SK-OV-3 = assay: Cytotoxicity against human SKOV3 cells; type: functional
BT-549 = assay: Cytotoxicity against human BT549 cells; type: functional
K562 [15] = assay: Cell cycle arrest in human K562 cells assessed as accumulation in G2/M phase at 20 uM after 24 hrs by flow cytometry analysis; type: functional
UACC-62 = assay: Cytotoxicity against human UACC62 cells; type: functional
CAKI-1 = assay: Cytotoxicity against human Caki1 cells; type: functional
KM12 = assay: Cytotoxicity against human KM12 cells; type: functional
K562 [16] = assay: Cell cycle arrest in human K562 cells assessed as accumulation in G2/M phase at 50 uM after 24 hrs by flow cytometry analysis; type: functional
K562 [17] = assay: Cell cycle arrest in human K562 cells assessed as accumulation in G2/M phase at 10 uM after 24 hrs by flow cytometry analysis; type: functional
MDA-MB-435 = assay: Cytotoxicity against human MDA-MB-435 cells; type: functional
[18] = read-out: LC50 (the source's name)

C(#Cc1ccccc1C#Cc1ccccn1)c1ccc(OCCCCCCOc2ccc(C#Cc3ccccc3C#Cc3ccccn3)cc2)cc1
GI50 (T47D): 2.35 µM | CC50 (T47D; [18]): > 50 µM | GI50 (NCI/ADR-RES): 2.3 µM | CC50 (NCI/ADR-RES; [18]): > 50 µM | GI50 (MDA-MB-231): 2.67 µM | CC50 (MDA-MB-231; [18]): 23.5 µM | GI50 (SNB-19): 6 µM | CC50 (SNB-19; [18]): 26.2 µM | GI50 (M14): 7.47 µM | CC50 (M14; [18]): 41.6 µM | GI50 (OVCAR-5): 3.56 µM | CC50 (OVCAR-5; [18]): 23.4 µM | GI50 (RXF 393): 7.65 µM | CC50 (RXF 393; [18]): 27.9 µM | GI50 (HCT-116): 8.69 µM | CC50 (HCT-116; [18]): > 50 µM | Activity (K562 [1]): 23% | GI50 (A549): 6.41 µM | CC50 (A549; [18]): 43.2 µM | GI50 (HCT-15): 2.78 µM | CC50 (HCT-15; [18]): 22 µM | GI50 (ACHN): 1.34 µM | CC50 (ACHN; [18]): 19.6 µM | Activity (K562 [2]): 52.1% | GI50 (U-251): 5.63 µM | CC50 (U-251; [18]): 24.1 µM | GI50 (SK-MEL-28): 5.73 µM | CC50 (SK-MEL-28; [18]): 24.3 µM | GI50 (PC-3): 4.46 µM | CC50 (PC-3; [18]): 29.2 µM | GI50 (NCI-H460): 1.69 µM | CC50 (NCI-H460; [18]): 18.7 µM | GI50 (OVCAR-4): 1.91 µM | CC50 (OVCAR-4; [18]): 23.4 µM | Activity (K562 [3]): 49.2% | Activity (K562 [4]): 59.7% | GI50 (SF-295): 1.24 µM | CC50 (SF-295; [18]): 15.8 µM | GI50 (HOP-62): 6.31 µM | CC50 (HOP-62; [18]): 38.8 µM | GI50 (MOLT-4): 0.37 µM | CC50 (MOLT-4; [18]): 28 µM | GI50 (HT-29): 7.89 µM | CC50 (HT-29; [18]): 27 µM | Activity (K562 [5]): 15% | Activity (K562 [6]): 15.54% | Activity (K562 [7]): 13.7% | GI50 (COLO 205): 8.18 µM | CC50 (COLO 205; [18]): 30.9 µM | Activity (K562 [8]): Active | GI50 (NCI-H226): 6.53 µM | CC50 (NCI-H226; [18]): 30.3 µM | GI50 (UO-31): 8.51 µM | CC50 (UO-31; [18]): > 50 µM | GI50 (OVCAR-3): 2.14 µM | CC50 (OVCAR-3; [18]): 21.3 µM | GI50 (MCF7): 1.91 µM | CC50 (MCF7; [18]): 21.8 µM | GI50 [9]: 0.62 µM | CC50 [9, 18]: > 50 µM | GI50 (HCC 2998): 7.21 µM | CC50 (HCC 2998; [18]): 26.9 µM | GI50 (SK-MEL-5): 2.3 µM | CC50 (SK-MEL-5; [18]): 20.5 µM | GI50 (K562 [10]): 1.38 µM | CC50 (K562 [10]; [18]): 22.8 µM | GI50 (SN12C): 6.55 µM | CC50 (SN12C; [18]): 32.7 µM | Activity (K562 [11]): 8.77% | GI50 (SW-620): 4 µM | CC50 (SW-620; [18]): 22.7 µM | Activity (K562 [12]): Active | GI50 (CCRF-CEM): 0.04 µM | CC50 (CCRF-CEM; [18]): > 50 µM | GI50 (786-0): 7.45 µM | CC50 (786-0; [18]): > 50 µM | GI50 (SNB-75): 5.13 µM | CC50 (SNB-75; [18]): 31.3 µM | GI50 (DU-145): 6.14 µM | CC50 (DU-145; [18]): 24.9 µM | GI50 (LOX IMVI): 0.27 µM | CC50 (LOX IMVI; [18]): 18.4 µM | GI50 (EKVX): 4.33 µM | CC50 (EKVX; [18]): 22.9 µM | Activity (K562 [13]): 8.57% | GI50 (NCI-H522): 2.87 µM | CC50 (NCI-H522; [18]): 38.4 µM | GI50 (SF-268): 3.63 µM | CC50 (SF-268; [18]): 22.7 µM | GI50 (SF-539): 2.38 µM | CC50 (SF-539; [18]): 21.3 µM | GI50 (NCI-H23): 7.97 µM | CC50 (NCI-H23; [18]): > 50 µM | GI50 [14]: 5.41 µM | CC50 [14, 18]: 34.6 µM | GI50 (HL-60): 0.09 µM | CC50 (HL-60; [18]): 2.7 µM | GI50 (UACC-257): 7.11 µM | CC50 (UACC-257; [18]): 31.4 µM | GI50 (SK-OV-3): 7.05 µM | CC50 (SK-OV-3; [18]): 42 µM | GI50 (BT-549): 3.45 µM | CC50 (BT-549; [18]): 22.7 µM | Activity (K562 [15]): 26.6% | GI50 (UACC-62): 0.47 µM | CC50 (UACC-62; [18]): 16.4 µM | GI50 (CAKI-1): 5.42 µM | CC50 (CAKI-1; [18]): 23.8 µM | GI50 (KM12): 1.38 µM | CC50 (KM12; [18]): 20.8 µM | Activity (K562 [16]): 24.9% | Activity (K562 [17]): 35.8% | GI50 (MDA-MB-435): 1.54 µM | CC50 (MDA-MB-435; [18]): 21.7 µM
